This assay in a line: Binding affinity against [3H]8-OH-DPAT-labeled 5-hydroxytryptamine 1A receptor sites in bovine hippocampus.

For `CCCN1CCC2c3c(cccc3OC)CCC21` (stereo not drawn) [9-Methoxy-3-propyl-2,3,3a,4,5,9b-hexahydro-1H-benzo[e]indole], affinity was put at a Ki of 0.0044 µM.
In the case of `CCCN1CCC2c3c(cccc3OC)CC[C@@H]21` (stereo partly drawn) [9-Methoxy-3-propyl-2,3,3a,4,5,9b-hexahydro-1H-benzo[e]indole], the affinity, expressed as Ki, was 0.186 µM.
Turning to `COc1cccc2c1CC[C@@H]1[C@H]2CCN1CC1CC1` [(3aR,9bS)-3-Cyclopropylmethyl-6-methoxy-2,3,3a,4,5,9b-hexahydro-1H-benzo[e]indole], the Ki is > 1 µM.

The record behind these values is BindingDB's records for doi:10.1021/jm00060a014 (Upjohn Laboratories, 1993).
